# Experimental data published in patent US20230364032A1, “USE OF 2-HOBA TO TREAT ATHEROSCLEROSIS” (Vanderbilt University, priority 2020, published 2023).
# Entries after “also recorded” stand apart in the source; their conditions may differ.
# What was measured:
# IsoLG = test: IsoLG-HOBA adducts/metabolites in liver and heart (LC/MS); assay type: in vivo, mouse; conditions: for IsoLG-HOBA adducts in hearts and livers: Ldlr−/− mice after 16 weeks on a western diet
# Experimental: To generate an internal standard for quantitation, 10 molar equivalents of the heavy isotope labeled 2-HOBA, [^2H4]2-HOBA, was reacted with synthetic IsoLG^69 overnight in 1 mM triethylammonium acetate buffer to form IsoLG-2-HOBA adducts, and the adducts separated from unreacted [^2H4]2-HOBA and IsoLG by solid phase extraction (Oasis HLB). The isolated reaction products of IsoLG-2-HOBA were scanned by mass spectrometer (Waters Xevo-TQ-Smicro triple quadrupole MS) operating in limited mass scanning mode to identify major products. Additionally, precursor scanning with the product ion set at m/z 111.1 was used to confirm that the detected products were [^2H4]2-HOBA adducts. […] Similar species were seen when IsoLG was reacted with non-labeled 2-HOBA and precursor scanning using product ion m/z 107.1 To identify potential 2-HOBA adducts in tissue of treated animals, the present inventors first generated a list of 18 probable IsoLG-HOBA species [pyrrole, lactam, hydroxylactam based on the in vitro reactions of IsoLG and 2-HOBA and then the anhydro-, dinor-, dinor/anhydro-, tetranor-, and keto-(from oxidation of hydroxyl group) metabolites of each of these three adducts based on previous metabolism studies with prostaglandins and isoprostanes]. The present inventors then analyzed liver homogenate from a 2-HOBA treated mouse using LC/MS with the mass spectrometer operating in positive ion precursor scanning mode and the product ion set to m/z 107.1 and collision energy at 20 eV and looked for the presence of any of these precursor ions. […] M2 m/z 440.3, which mass is consistent with the pyrrole adduct, and M3 m/z 454.3 which mass is consistent with the anhydro-hydroxylactam adduct or the keto-lactam adduct. When then sought to quantify the amount of the putative IsoLG-HOBA adducts in heart and liver samples as there was not sufficient aorta sample remaining from other analysis available to do this analysis.
# For these experiments, liver or heart samples from Ldlr^−/− mice treated with 2-HOBA or 4-HOBA were homogenized in 0.5 M Tris buffer solution pH 7.5 containing mixture of antioxidants (pyridoxamine, indomethacin, BHT, TCEP). Total amount of protein in homogenate was determined for normalization. 1 pmol IsoLG-[^2H4]2-HOBA was then added to each homogenate sample as internal standard, the HOBA adducts extracted with ethyl acetate, dried, dissolved in solvent 1 (water with 0.1% acetic acid) and analyzed by LC/MS using Waters Xevo-TQ-Smicro triple quadrupole mass spectrometer operating in positive ion multiple reaction monitoring (MRM) mode, monitoring the following transitions: m/z 438.3→107.1@20 eV for M1; m/z 440→107.1@20 eV for M2; m/z 454→107.1@20 eV for M3; and m/z 476.3→111.1@20 eV for IsoLG-[^2H4]2-HOBA hydroxylactam. Desolvati on temperature: 500° C.; source temperature: 150° C.; capillary voltage: 5 kV, cone voltage: 5 V; cone gas flow 1 L/h; desolvation gas flow 1000 L/h. HPLC condition were as follows: Solvent 1: water with 0.1% acetic acid; Solvent 2, methanol with 0.1% acetic acid; column: Phenomenex Kinetex C8 50×2.1 mm 2.6 u 100 Å, flow rate: 0.4 mL/min; gradient: starting condition 10% B with gradient ramp to 100% B over 3.5 min, hold for 0.5 min, and return to starting conditions over 0.5 min. Abundance for each metabolite was calculated based on the ratio of peak height versus that of internal standard.
# Phospho-Akt (S473) = test: Akt signaling in macrophages (phospho-Akt Western blot); assay type: cell-based, mouse; conditions: 250 μM, 1 hour; absence and presence of insulin; vehicle, 4-HOBA, 2-HOBA compared
# Experimental: WT macrophages were treated with or without vehicle (water), 250 μM 4-HOBA or 2-HOBA for 1 hour, and then incubated with or without 100 nM insulin as indicated for 15 min. Phospho-Akt (S473) and GAPDH were detected by Western Blotting (19A). The band density was quantitated by ImageJ software (19B). Two independent experiments were performed.
# [1] = Ldlr−/− mice, Western diet 16 weeks, continuously treated, Mean ± SEM
smiles,measurement,setting,value
"NCc1ccccc1O [2-HOBA, 2-hydroxybenzylamine]",IsoLG-HOBA adducts in hearts and livers,IsoLG,present
same,"IsoLG-HOBA-M1 level, heart",IsoLG; [1],0.74 ± 0.21 nmol/kg
same,"IsoLG-HOBA-M1 level, liver",IsoLG; [1],0.88 ± 0.14 nmol/kg
same,"IsoLG-HOBA-M2 level, heart",IsoLG; [1],0.57 ± 0.35 nmol/kg
same,"IsoLG-HOBA-M2 level, liver",IsoLG; [1],0.82 ± 0.12 nmol/kg
same,"IsoLG-HOBA-M3 level, heart",IsoLG; [1],0.24 ± 0.17 nmol/kg
same,"IsoLG-HOBA-M3 level, liver",IsoLG; [1],4.17 ± 1.85 nmol/kg
same,pAKT levels in macrophages,Phospho-Akt (S473),no difference; also recorded: does not influence
"NCc1ccc(O)cc1 [4-HOBA, 4-hydroxybenzylamine, reference compound]",IsoLG-HOBA adducts in hearts and livers,IsoLG,nondetectable
same,pAKT levels in macrophages,Phospho-Akt (S473),no difference
